Reference: patent publication US20140045823A1 (Neurocrine Biosciences, Inc., priority 2012, published 2014)

biological target: T1, human GPR119 (Homo sapiens, UniProt Q8TDV5); assay: AlphaScreen cAMP assay in MIN6 cells stably transfected with human GPR119; assay type: cell-based; conditions: Min-6/hGPR119 cells, 45 min at room temperature
T1 construct: expression vector for human GPR119 cDNA (Acc. No. NP_848566); expressed in transfected cells; Min-6/hGPR119
T1 sequence (Q8TDV5 1-335): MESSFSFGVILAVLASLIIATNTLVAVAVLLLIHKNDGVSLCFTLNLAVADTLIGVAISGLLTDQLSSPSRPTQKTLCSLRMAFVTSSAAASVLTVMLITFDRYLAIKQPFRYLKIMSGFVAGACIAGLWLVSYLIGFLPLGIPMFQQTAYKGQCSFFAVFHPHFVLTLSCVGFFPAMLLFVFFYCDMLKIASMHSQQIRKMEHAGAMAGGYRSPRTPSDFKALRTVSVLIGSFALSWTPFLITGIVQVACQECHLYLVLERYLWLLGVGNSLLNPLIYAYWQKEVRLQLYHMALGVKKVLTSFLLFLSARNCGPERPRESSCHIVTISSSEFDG
Procedure: The compounds of formula I according to the invention modulate the activity of the G-protein-coupled receptor GPR119. The effect of the compounds on the activation of GPR119 and on the stimulation of intracellular cAMP concentration is determined using the AlphaScreen cAMP Assay Kit (Cat. No. #6760625R) made by PerkinElmer.
MIN6 cells [Miyazaki J et al. Endocrinology. 1990 July; 127(1):126-32] are stably transfected with an expression vector for human GPR119 cDNA (Acc. No. NP_848566). Min-6/hGPR119 cells are cultured in DMEM, 10% FBS, 50 μM β-mercaptoethanol, 0.3 mg/mL Geniticin, 2 mM GlutaMAX at 37° C. 5% CO2. For the assay, the cells are seeded in Optiplates (white, 384-well, 160 W—barcoded, TC, sterile with lid, Cat. No. #6007688 (Perkin Elmer); 10000 cells/well; 50 μl). The plates covered with lids are then incubated for 24 hours at 37° C./5% CO2. After the medium is aspirated from the wells completely, 10 μl of the test compound are added, the compounds are diluted using stimulating buffer (140 mM NaCl, 3.6 mM KCl, 0.5 mM NaH2PO4, 0.5 mM MgSO4, 1.5 mM CaCl2, 10 mM Hepes, 5 mM NaHCO3; pH 7.4. 0.5 mM IBMX and 0.1% BSA, the final DMSO concentration is 1%). After 45 minutes incubation at room temperature (approx. 20° C.), the cAMP concentrations are determined using the AlphaScreen cAMP Assay Kit (Cat. No. #6760625R from PerkinElmer).

| EC50 | SMILES |
| --- | --- |
| 111 nM | COc1ccc(NC(=O)c2ccc(-c3ncc(C(=O)N(C4CC4)C4CCN(C(=O)OC(C)(C)C)CC4)cn3)cc2)c(OC)c1 [Example 238, 4-(Cyclopropyl-{2-[4-(2,4-dimethoxy-phenylcarbamoyl)-phenyl]-pyrimidine-5-carbonyl}-amino)-piperidine-1-carboxylic acid tert-butyl ester] |
| 108 nM | CN(Cc1cccnc1)C(=O)c1ccc(-c2ncc(C(=O)N(C3CC3)C3CCN(C(=O)OC(C)(C)C)CC3)cn2)cc1F [Example 127, 4-(Cyclopropyl-{2-[3-fluoro-4-(methyl-pyridin-3-ylmethyl-carbamoyl)-phenyl]-pyrimidine-5-carbonyl}-amino)-piperidine-1-carboxylic acid tert-butyl ester] |
| 14 nM | CC(C)(C)OC(=O)N1CCC(N(C(=O)c2cnc(-c3ccc(C#N)cc3)nc2)C2CC2)CC1 [Example 72, 4-{[2-(4-Cyano-phenyl)-pyrimidine-5-carbonyl]-cyclopropyl-amino}-piperidine-1-carboxylic acid tert-butyl ester] |
| 165 nM | CCOCCNC(=O)c1ccc(-c2ncc(C(=O)N(C3CC3)C3CCN(C(=O)OC(C)(C)C)CC3)cn2)cc1 [Example 175, 4-(Cyclopropyl-{2-[4-(2-ethoxy-ethylcarbamoyl)-phenyl]-pyrimidine-5-carbonyl}-amino)-piperidine-1-carboxylic acid tert-butyl ester] |
| 55 nM | CC(C)(C)OC(=O)N1CCC(N(C(=O)c2cnc(-c3ccc(OC(F)(F)F)cc3)nc2)C2CC2)CC1 [Example 77, 4-{Cyclopropyl-[2-(4-trifluoromethoxy-phenyl)-pyrimidine-5-carbonyl]-amino}-piperidine-1-carboxylic acid tert-butyl ester] |
| 71 nM | CCOc1ccc(-c2ncc(C(=O)N(C3CC3)C3CCN(C(=O)OC(C)(C)C)CC3)cn2)cc1 [Example 76, 4-{Cyclopropyl-[2-(4-ethoxy-phenyl)-pyrimidine-5-carbonyl]-amino}-piperidine-1-carboxylic acid tert-butyl ester] |
| 350 nM | COC[C@@H]1CCCN1C(=O)Cc1ccc(-c2ncc(C(=O)N(C3CC3)C3CCN(C(=O)OC(C)(C)C)CC3)cn2)cc1 [Example 212, 4-[Cyclopropyl-(2-{4-[2-(2-methoxymethyl-pyrrolidin-1-yl)-2-oxo-ethyl]-phenyl}-pyrimidine-5-carbonyl)-amino]-piperidine-1-carboxylic acid tert-butyl ester] |
| 157 nM | CC(C)(C)OC(=O)N1CCC(N(C(=O)c2cnc(-c3ccc(C(=O)NCc4ccccn4)cc3)nc2)C2CC2)CC1 [Example 224, 4-[Cyclopropyl-(2-{4-[(pyridin-2-ylmethyl)-carbamoyl]-phenyl}-pyrimidine-5-carbonyl)-amino]-piperidine-1-carboxylic acid tert-butyl ester] |
| 393 nM | CC(C)(C)OC(=O)N1CCC(N(C(=O)c2cnc(-c3ccc(CC(=O)NCc4ccccn4)cc3)nc2)C2CC2)CC1 [Example 215, 4-{Cyclopropyl-[2-(4-{[(pyridin-2-ylmethyl)-carbamoyl]-methyl}-phenyl)-pyrimidine-5-carbonyl]-amino}-piperidine-1-carboxylic acid tert-butyl ester] |

The next lines start with the compound.

| SMILES | EC50 |
| --- | --- |
| CC(C)OC(=O)N1CCC(N(C(=O)c2cnc(-c3ccc(C#N)c(F)c3)nc2)C2CC2)CC1 [Example 61, 4-{[2-(4-Cyano-3-fluoro-phenyl)-pyrimidine-5-carbonyl]-cyclopropyl-amino}-piperidine-1-carboxylic acid isopropyl ester] | 13 nM |
| COC1CCN(C(=O)c2ccc(-c3ncc(C(=O)N(C4CC4)C4CCN(C(=O)OC(C)(C)C)CC4)cn3)cc2)CC1 [Example 181, 4-(Cyclopropyl-{2-[4-(4-methoxy-piperidine-1-carbonyl)-phenyl]-pyrimidine-5-carbonyl}-amino)-piperidine-1-carboxylic acid tert-butyl ester] | 206 nM |
| CC(C)(C)OC(=O)N1CCC(N(C(=O)c2csc(-c3ccc(C#N)cc3)n2)C2CC2)CC1 [Example 47, 4-{[2-(4-Cyano-phenyl)-thiazole-4-carbonyl]-cyclopropyl-amino}-piperidine-1-carboxylic acid tert-butyl ester] | 1860 nM |
| Cc1c(C(=O)N(C2CC2)C2CCN(C(=O)OC(C)(C)C)CC2)noc1-c1ccc(C#N)cc1 [Example 44, 4-{[5-(4-Cyano-phenyl)-4-methyl-isoxazole-3-carbonyl]-cyclopropyl-amino}-piperidine-1-carboxylic acid tert-butyl ester] | 47 nM |
| COc1ccc(NC(=O)c2ccc(-c3ncc(C(=O)N(C4CC4)C4CCN(C(=O)OC(C)(C)C)CC4)cn3)cc2F)c(OC)c1 [Example 120, 4-(Cyclopropyl-{2-[4-(2,4-dimethoxy-phenylcarbamoyl)-3-fluoro-phenyl]-pyrimidine-5-carbonyl}-amino)-piperidine-1-carboxylic acid tert-butyl ester] | 212 nM |
| COC[C@@H]1CCCN1C(=O)c1ccc(-c2ncc(C(=O)N(C3CC3)C3CCN(C(=O)OC(C)(C)C)CC3)cn2)cc1F [Example 108, 4-(Cyclopropyl-{2-[3-fluoro-4-(2-methoxymethyl-pyrrolidine-1-carbonyl)-phenyl]-pyrimidine-5-carbonyl}-amino)-piperidine-1-carboxylic acid tert-butyl ester] | 312 nM |
| COC1CN(C(=O)c2ccc(-c3ncc(C(=O)N(C4CC4)C4CCN(C(=O)OC(C)(C)C)CC4)cn3)cc2F)C1 [Example 137, 4-(Cyclopropyl-{2-[3-fluoro-4-(3-methoxy-azetidine-1-carbonyl)-phenyl]-pyrimidine-5-carbonyl}-amino)-piperidine-1-carboxylic acid tert-butyl ester] | 264 nM |
| COc1ccc(NC(=O)c2ccc(-c3ncc(C(=O)N(C4CC4)C4CCN(C(=O)OC(C)(C)C)CC4)cn3)c(F)c2)cn1 [Example 159, 4-(Cyclopropyl-{2-[2-fluoro-4-(6-methoxy-pyridin-3-ylcarbamoyl)-phenyl]-pyrimidine-5-carbonyl}-amino)-piperidine-1-carboxylic acid tert-butyl ester] | 303 nM |
| CC(C)(C)OC(=O)N1CCC(N(C(=O)c2ncn(-c3ccc(C#N)cc3F)n2)C2CC2)CC1 [Example 49, 4-{[1-(4-Cyano-2-fluoro-phenyl)-1H-[1,2,4]triazole-3-carbonyl]-cyclopropyl-amino}-piperidine-1-carboxylic acid tert-butyl ester] | 149 nM |
| COCC(C)N(C)C(=O)c1ccc(-c2ncc(C(=O)N(C3CC3)C3CCN(C(=O)OC(C)(C)C)CC3)cn2)c(F)c1 (stereo not drawn) [Example 135, 4-[Cyclopropyl-(2-{2-fluoro-4-[(2-methoxy-1-methyl-ethyl)-methyl-carbamoyl]-phenyl}-pyrimidine-5-carbonyl)-amino]-piperidine-1-carboxylic acid tert-butyl ester] | 914 nM |
| CC(C)(C)OC(=O)N1CCC(N(C(=O)c2cnc(-c3cnco3)nc2)C2CC2)CC1 [Example 9, 4-[Cyclopropyl-(2-oxazol-5-yl-pyrimidine-5-carbonyl)-amino]-piperidine-1-carboxylic acid tert-butyl ester] | 224 nM |
| CN(CCO)C(=O)c1ccc(-c2ncc(C(=O)N(C3CC3)C3CCN(C(=O)OC(C)(C)C)CC3)cn2)cc1F [Example 113, 4-[Cyclopropyl-(2-{3-fluoro-4-[(2-hydroxy-ethyl)-methyl-carbamoyl]-phenyl}-pyrimidine-5-carbonyl)-amino]-piperidine-1-carboxylic acid tert-butyl ester] | 597 nM |
| CC(C)(C)OC(=O)N1CCC(N(C(=O)c2ncc(-c3cnco3)cn2)C2CC2)CC1 [Example 7, 4-[Cyclopropyl-(5-oxazol-5-yl-pyrimidine-2-carbonyl)-amino]-piperidine-1-carboxylic acid tert-butyl ester] | 1200 nM |
| CC(C)(C)OC(=O)N1CCC(N(C(=O)c2cnc(-c3ccc(C#N)c(F)c3)nc2)C2CC2)CC1 [Example 90, 4-{[2-(4-Cyano-3-fluoro-phenyl)-pyrimidine-5-carbonyl]-cyclopropyl-amino}-piperidine-1-carboxylic acid tert-butyl ester] | 8 nM |
| CC(C)(C)OC(=O)N1CCC(N(C(=O)c2ccc(-c3cccc([N+](=O)[O-])c3)o2)C2CC2)CC1 [Example 62, 4-{Cyclopropyl-[5-(3-nitro-phenyl)-furan-2-carbonyl]-amino}-piperidine-1-carboxylic acid tert-butyl ester] | 786 nM |
